Reference: paper PMC5515971, “Utility of spherical human liver microtissues for prediction of clinical drug-induced liver injury” (Archives of Toxicology, 2017)
Where two headings read alike, the source gives them in different places.

Experiments:
[1] = tested on: primary human hepatocytes (PHH); test: Cytotoxicity (cellular ATP, CellTiter-Glo) in 2D plated primary human hepatocytes, 48 h treatment; format: cell-based; settings: for IC50: read-out: Geomean IC50; for cytotoxicity IC50 detected: in words;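 on all read-outs here: 384-well plates, luminescence read-out, normalized to vehicle wells with 1% DMSO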
Method: Cryopreserved PHH (lot IZT) were thawed in InVitroGro HT™ thawing media at 37 °C, pelleted, and resuspended. Viable hepatocytes were counted by Trypan blue exclusion and plated in black-walled, BioCoat™ collagen 384-well plates at 13,000 cells/well in InVitroGro CP™ plating media supplemented with 1% Torpedo™ Antibiotic Mix and 5% fetal bovine serum and incubated overnight for 18 h. Cells were then treated with compounds for 48 h diluted in InVitroGro HI™ incubation media containing 1% Torpedo Antibiotic Mix, 10% fetal bovine serum, and 1% DMSO. […] Luminescence was determined on an EnVision™ Muliplate Reader (PerkinElmer, Waltham, MA, USA), and data were normalized to vehicle (1% DMSO) control wells.

[2] = tested on: 3D human liver microtissues (hLiMT); test: Cytotoxicity (cellular ATP) in 3D human liver microtissues, 5-6 days treatment; format: cell-based; settings: read-out: IC50 SHORT;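 further: Hanging-drop spheroids, seven-point dilution series, re-dosed on day 3, CellTiter-Glo 2.0 luminescence, normalized to 0.5 or 1% DMSO vehicle controls on the same plate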
[3] = cited from earlier work
[4] = tested on: 3D human liver microtissues (hLiMT); test: Cytotoxicity (cellular ATP, CellTiter-Glo 2.0) in 3D human liver microtissues, 14 day repeat-dose treatment
[5] = cited from earlier work; for DILI category: clinical, from literature and product labels
[6] = ref Chen et al 2016 / Chen et al 2011; cited from earlier work
[7] = Hepatocyte, 2D primary human hepatocytes (lot IZT), 48 h treatment, total cellular ATP content
[8] = Homo sapiens, hLiMT, 5/6 days, ATP content
[9] = human Cmax total, used for IC50/Cmax
[10] = human total plasma Cmax, ref literature values
[11] = Homo sapiens, 336 h, read-out: IC50 LONG
[12] = Homo sapiens, Hepatocyte, 336 h, read-out: Geomean IC50 [µM]
[13] = Table 1, ref Garside et al. (2014)
[14] = clinical DILI severity category, 1-5
[15] = table S-4, ref Garside et al. 2014
[16] = 2D primary human hepatocytes (lot IZT), 48 h treatment, total cellular ATP content
[17] = read-out: Geomean IC50, decrease in total cellular ATP content, hLiMT treated for 14 days, hepatocyte lot IZT (except Dexamethasone) co-cultured with NPCs, n=1 or geometric mean

CCOC(=O)CN[C@@H](C(=O)N1CC[C@H]1C(=O)NCc1ccc(/C(N)=N\O)cc1)C1CCCCC1 [Ximelagatran]
IC50 [1, 7]: > 200 µM
IC50 [2, 8]: 200 µM
Cmax [3, 9]: 0.45 µM
Cmax [3, 10]: 0.45 µM
IC50 ([4]; Homo sapiens, 336 h, read-out: IC50 (ATP-assay)): 121 µM
IC50 [4, 11]: 151 µM
IC50 [4, 12]: ~151 µM

CC1(C)S[C@@H]2[C@H](NC(=O)COc3ccccc3)C(=O)N2[C@H]1C(=O)O [Penicillin V]
IC50 [1, 7]: > 100 µM
IC50 [2, 8]: 100 µM
Cmax [3, 9]: 14.3 µM
Cmax [3, 10]: 14.3 µM
IC50 [4, 12]: > 100 µM

CN(C)CCC(c1ccc(Cl)cc1)c1ccccn1 (stereo not shown) [Chlorpheniramine]
IC50 [2, 8]: 100 µM
Cmax [3, 9]: 0.044 µM
Cmax [3, 10]: 0.0437 µM
DILI severity category [5, 13]: 3: Low clinical DILI concern (N = 23)
DILI severity category [5, 14]: 3. Low Clinical DILI Concern
DILI category ([5]; ref Garside et al. 2014): 3. Low Clinical DILI Concern
DILI severity category [5, 15]: 3
FDA DILI Classification DILI severity score [6]: 0
LTKB DILI classification [6]: no DILI concern

NC(=O)N1c2ccccc2C=Cc2ccccc21 [Carbamazepine]
IC50 [1, 7]: > 500 µM
Cmax [3, 9]: 50.8 µM
Cmax [3, 10]: 50.8 µM
DILI severity category [5, 13]: 2: High clinical DILI concern (N = 23)
DILI severity category [5, 14]: 2. High Clinical DILI Concern
DILI category ([5]; ref Garside et al. 2014): 2. High Clinical DILI Concern
FDA DILI Classification DILI severity score [6]: 7
LTKB DILI classification [6]: most DILI concern
IC50 [4, 12]: 267 µM

NC(=O)OCC(COC(N)=O)c1ccccc1 [Felbamate]
IC50 [1, 7]: > 100 µM
Cmax [3, 9]: 399 µM
Cmax [3, 10]: 399 µM
DILI severity category [5, 13]: 1: Severe clinical DILI (N = 23)
DILI severity category [5, 14]: 1. Severe Clinical DILI
DILI category ([5]; ref Garside et al. 2014): 1. Severe Clinical DILI
FDA DILI Classification DILI severity score [6]: 7
LTKB DILI classification [6]: most DILI concern
IC50 [4, 12]: > 100 µM

COc1ccc2cc([C@H](C)C(=O)O)ccc2c1 [Naproxen]
IC50 [2, 8]: 100 µM

O=C1CN(/N=C/c2ccc([N+](=O)[O-])o2)C(=O)N1 [Nitrofurantoin]
IC50 [2, 8]: 100 µM
Cmax [3, 9]: 21 µM
Cmax [3, 10]: 21 µM
DILI severity category [5, 13]: 2: High clinical DILI concern (N = 23)
DILI severity category [5, 14]: 2. High Clinical DILI Concern
DILI category ([5]; ref Garside et al. 2014): 2. High Clinical DILI Concern
DILI severity category [5, 15]: 2
FDA DILI Classification DILI severity score [6]: 8
LTKB DILI classification [6]: most DILI concern

Cc1cc2c(cc1CC(=O)c1sccc1S(=O)(=O)Nc1onc(C)c1Cl)OCO2 [Sitax(s)entan]
IC50 [1, 16]: > 500 µM
cytotoxicity IC50 detected ([1]; PHH 48 h): no IC50 values were detected
Cmax [3, 9]: 28.6 µM
Cmax [3, 10]: 28.6 µM
DILI severity category [5, 13]: 1: Severe clinical DILI (N = 23)
DILI severity category [5, 14]: 1. Severe Clinical DILI
DILI category ([5]; ref Garside et al. 2014): 1. Severe Clinical DILI
FDA DILI Classification DILI severity score [6]: 8
LTKB DILI classification [6]: most DILI concern
IC50 [4, 17]: 249 µM

CCN(CC)CCCC(C)Nc1c2ccc(Cl)cc2nc2ccc(OC)cc12 (stereo not shown) [Quinacrine]
IC50 [1, 7]: 7.3 µM
IC50 [2, 8]: 3.7 µM
Cmax [3, 10]: 258 µM
IC50 [4, 11]: 2 µM
IC50 [4, 12]: > 2 µM

C[C@]12CC[C@@H]3c4ccc(O)cc4CC[C@H]3[C@@H]1CC[C@@H]2O [beta-Estradiol]
IC50 [1, 16]: > 100 µM
IC50 ([2]; hLiMT, 5/6 days, ATP content): 42 µM
Cmax [3, 9]: 0.0006 µM
Cmax [3, 10]: 0.0006 µM
IC50 [4, 17]: 13.5 µM

CCC(C)n1ncn(-c2ccc(N3CCN(c4ccc(OCC5COC(Cn6cncn6)(c6ccc(Cl)cc6Cl)O5)cc4)CC3)cc2)c1=O (stereo not shown) [Itraconazole]
IC50 [1, 7]: > 25 µM
Cmax [3, 9]: 2.8 µM
Cmax [3, 10]: 2.83 µM
DILI severity category [5, 13]: 2: High clinical DILI concern (N = 23)
DILI severity category [5, 14]: 2. High Clinical DILI Concern
DILI category ([5]; ref Garside et al. 2014): 2. High Clinical DILI Concern
FDA DILI Classification DILI severity score [6]: 8
LTKB DILI classification [6]: most DILI concern
IC50 [4, 12]: 1.6 µM

CS(=O)(=O)CCNCc1ccc(-c2ccc3ncnc(Nc4ccc(OCc5cccc(F)c5)c(Cl)c4)c3c2)o1 [Lapatinib]
IC50 [1, 7]: 33.3 µM
Cmax [3, 9]: 19 µM
Cmax [3, 10]: 19 µM
DILI severity category [5, 13]: 1: Severe clinical DILI (N = 23)
DILI severity category [5, 14]: 1. Severe Clinical DILI
DILI category ([5]; ref Garside et al. 2014): 1. Severe Clinical DILI
FDA DILI Classification DILI severity score [6]: 8
LTKB DILI classification [6]: most DILI concern
IC50 [4, 12]: ~27.3 µM

COc1ccc2c(c1)c(CC(=O)O)c(C)n2C(=O)c1ccc(Cl)cc1 [Indomethacin]
IC50 [1, 7]: > 100 µM
IC50 [2, 8]: 100 µM
Cmax [3, 9]: 8.4 µM
Cmax [3, 10]: 8.38 µM
IC50 [4, 12]: > 100 µM

COc1ccccc1Oc1c(NS(=O)(=O)c2ccc(C(C)(C)C)cc2)nc(-c2ncccn2)nc1OCCO [Bosentan]
IC50 [1, 7]: > 200 µM
cytotoxicity IC50 detected ([1]; PHH 48 h): no IC50 values were detected
IC50 [2, 8]: 100 µM
DILI severity category [5, 13]: 1: Severe clinical DILI (N = 23)
DILI severity category [5, 14]: 1. Severe Clinical DILI
DILI category ([5]; ref Garside et al. 2014): 1. Severe Clinical DILI
DILI severity category [5, 15]: 1
FDA DILI Classification DILI severity score [6]: 7
LTKB DILI classification [6]: most DILI concern
IC50 [4, 11]: 93 µM
IC50 [4, 12]: ~93 µM

Cn1c(=O)c2[nH]cnc2n(C)c1=O [Theophylline]
IC50 ([1]; Homo sapiens, Hepatocyte, 48 h): > 100 µM
IC50 ([2]; Homo sapiens): 100 µM
Cmax ([3]; human, in vivo): 83.8 µM
IC50 [4, 12]: > 100 µM

CC(=O)Oc1ccccc1C(=O)O [Acetylsalicylic acid]
IC50 [1, 7]: > 1000 µM
Cmax [3, 9]: 1110 µM
Cmax [3, 10]: 1110 µM
DILI severity category [5, 13]: 3: Low clinical DILI concern (N = 23)
DILI severity category [5, 14]: 3. Low Clinical DILI Concern
DILI category ([5]; ref Garside et al. 2014): 3. Low Clinical DILI Concern
FDA DILI Classification DILI severity score [6]: 5
IC50 [4, 12]: > 1000 µM

CC(c1cc2ccccc2s1)N(O)C(N)=O (stereo not shown) [Zileuton]
IC50 [1, 7]: > 100 µM
Cmax [3, 9]: 13.1 µM
Cmax [3, 10]: 13.1 µM
DILI severity category [5, 13]: 2: High clinical DILI concern (N = 23)
DILI severity category [5, 14]: 2. High Clinical DILI Concern
DILI category ([5]; ref Garside et al. 2014): 2. High Clinical DILI Concern
FDA DILI Classification DILI severity score [6]: 5
LTKB DILI classification [6]: most DILI concern
IC50 [4, 12]: > 100 µM

CCc1ccc(CCOc2ccc(CC3SC(=O)NC3=O)cc2)nc1 (stereo not shown) [Pioglizatone, Pioglitazone]
IC50 [1, 7]: > 125 µM
Cmax [3, 9]: 2.95 µM
Cmax [3, 10]: 2.95 µM
DILI severity category [5, 13]: 3: Low clinical DILI concern (N = 23)
DILI severity category [5, 14]: 3. Low Clinical DILI Concern
DILI category ([5]; ref Garside et al. 2014): 3. Low Clinical DILI Concern
FDA DILI Classification DILI severity score [6]: 3
LTKB DILI classification [6]: less DILI concern
IC50 [4, 12]: > 15.6 µM

O=C1[C@H](CC[C@H](O)c2ccc(F)cc2)[C@@H](c2ccc(O)cc2)N1c1ccc(F)cc1 [Ezetimibe]
IC50 [2, 8]: 45.6 µM
DILI severity category [5, 15]: 3
IC50 [4, 11]: 45.5 µM

O=c1[nH]c2ccccc2n1C1CCN(CCCC(c2ccc(F)cc2)c2ccc(F)cc2)CC1 [Pimozide]
IC50 [1, 7]: 17.6 µM
Cmax [3, 9]: 0.11 µM
Cmax [3, 10]: 0.11 µM
DILI severity category [5, 13]: 3: Low clinical DILI concern (N = 23)
DILI severity category [5, 14]: 3. Low Clinical DILI Concern
DILI category ([5]; ref Garside et al. 2014): 3. Low Clinical DILI Concern
FDA DILI Classification DILI severity score [6]: 0
LTKB DILI classification [6]: no DILI concern
IC50 [4, 12]: > 6 µM

CCc1oc2ccccc2c1C(=O)c1cc(Br)c(O)c(Br)c1 [Benzbromarone]
IC50 [1, 7]: 171 µM
Cmax [3, 9]: 23.6 µM
Cmax [3, 10]: 23.6 µM
DILI severity category [5, 13]: 1: Severe clinical DILI (N = 23)
DILI severity category [5, 14]: 1. Severe Clinical DILI
DILI category ([5]; ref Garside et al. 2014): 1. Severe Clinical DILI
FDA DILI Classification DILI severity score [6]: 8
LTKB DILI classification [6]: most DILI concern
IC50 [4, 12]: 11.8 µM

CC(C)c1c(C(=O)Nc2ccccc2)c(-c2ccccc2)c(-c2ccc(F)cc2)n1CC[C@@H](O)C[C@@H](O)CC(=O)O [Atorvastatin]
IC50 [2, 8]: 70.7 µM
IC50 [4, 12]: 6 µM

Cc1cnc(NC(=O)C2=C(O)c3ccccc3S(=O)(=O)N2C)s1 [Meloxicam]
IC50 [1, 7]: > 100 µM
IC50 [2, 8]: 100 µM
Cmax [3, 9]: 5.21 µM
Cmax [3, 10]: 5.21 µM
IC50 [4, 12]: > 100 µM

[H]/N=C(/N)N/C(=N/[H])NCCc1ccccc1 [Phenformin]
IC50 [1, 7]: 5.1 µM
IC50 [2, 8]: 7.7 µM
Cmax [3, 9]: 0.63 µM
Cmax [3, 10]: 0.63 µM
DILI severity category [5, 13]: 3: Low clinical DILI concern (N = 23)
DILI severity category [5, 14]: 3. Low Clinical DILI Concern
DILI category ([5]; ref Garside et al. 2014): 3. Low Clinical DILI Concern
DILI severity category [5, 15]: 3
IC50 [4, 11]: 12.5 µM
IC50 [4, 12]: < 12.5 µM

CN1C[C@H](CNC(=O)OCc2ccccc2)C[C@@H]2c3cccc4c3c(cn4C)C[C@H]21 [Metergoline]
IC50 [1, 7]: 20.1 µM
classification at 100 μM IC50 threshold ([1]; PHH 48 h): false positives
IC50 [2, 8]: 12.3 µM
Cmax [3, 9]: 0.07 µM
Cmax [3, 10]: 0.07 µM
IC50 [4, 12]: 7.8 µM
classification at 100 μM IC50 threshold ([4]; hLiMT 14 days): false positives
